Laboratory results: patent publication US20100216827A1 (Metabolex, Inc., priority 2008, published 2010)
Read-outs that look alike come from different tables or passages of the source.

Target: T1, human GPR120 (Homo sapiens, UniProt Q5NUL3)
T1 construct: host or cells: HEK293 cells coexpressing Gqi5
T1 sequence (Q5NUL3 1-361): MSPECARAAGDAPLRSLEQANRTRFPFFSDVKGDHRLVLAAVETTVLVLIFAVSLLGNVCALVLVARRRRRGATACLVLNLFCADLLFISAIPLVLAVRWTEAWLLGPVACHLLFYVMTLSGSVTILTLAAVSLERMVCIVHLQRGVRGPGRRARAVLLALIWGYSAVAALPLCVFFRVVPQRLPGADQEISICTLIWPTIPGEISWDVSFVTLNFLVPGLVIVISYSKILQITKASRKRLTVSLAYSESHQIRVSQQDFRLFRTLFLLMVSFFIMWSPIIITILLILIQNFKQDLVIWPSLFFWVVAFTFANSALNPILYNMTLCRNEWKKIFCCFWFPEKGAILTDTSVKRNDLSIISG
Test: Intracellular Ca2+ (FLIPR Calcium 4, Flexstation) assay in human GPR120 stable HEK293 cell line coexpressing Gqi5
Format: cell-based
Conditions: for % Activity at 5 μM: 5 μM compound compared to the maximal activity of GW9508 at 6.7 μM (100%); for EC50: human GPR120 stably expressing cells, 8 concentrations 0.00001 to 20 μM
Description: Human GPR120 stable cell line was purchased from Multispan Inc (26219 Eden Landing Road, Hayward, Calif. 94545). This GPR120 cell line was generated in HEK293 cells coexpressing Gqi5. In this cell line, the Flag epitope tag (DYKDDDDK) was fused to the amino terminus of human GPR120 protein.
The concentration of intracellular Ca^2+ was measured as described below. Human GPR120 cells were plated in 96 well plates (Poly-D-Lysine coated black/clear Plate, Greiner Bio-One) at 70,000 cells per well and cultured overnight in conditions of 37° C. and 5% CO2. A Ca^2+ assay dye stock solution was prepared by adding 10 mL of assay buffer (HBSS/20 mM HEPES, pH 7.4) to FLIPR Calcium 4 Assay Bulk Kit (Molecular Devices). The 10 mL of Ca^2+ assay dye solution was prepared by further diluting 0.5 mL of Ca^2+ assay dye stock solution with 10 mL of assay buffer. The medium of the cells was removed and immediately 100 μl of the Ca^2+ assay dye solution was dispensed into each well followed by incubation at 37° C. and 5% CO2 for 50 minutes to incorporate the Ca^2+ dye into the cells. The cell plate was then placed in the Flexstation (Molecular Devices) for 20 minutes at 37° C. Compounds were dissolved in 100% DMSO and diluted to desired concentrations with assay buffer and placed in Flexstation simultaneously with the cell plate for 20 minute incubation at 37° C. prior to reading. Fluorescence intensity was measured immediately following compound addition (25 μl/well) on the Flexstation at an excitation wavelength of 485 nm and an emission wavelength of 525 with 515 nm auto cutoff. The resulting increase in fluorescence intensities corresponds to increases in intracellular Ca^2+ levels.
Compounds were dissolved in 100% DMSO to a concentration of 20 mM to provide stock solutions. To determine activity against human GPR120, compounds were added with human GPR120 stably expressing cells (described above), at 8 desired concentrations ranging from 0.00001 to 20 μM, in 96 well plates and fluorescence intensities were measured for 90 seconds with 2-second intervals. An EC50 value (concentration of the GPR120 agonist where 50% of the agonist's maximal activity is observed) was calculated using the changes (Max-Min) of fluorescent intensity.
To determine percent activity for a tested compound, the fluorescence intensity value obtained at a particular concentration were compared to the maximal fluorescence intensity value obtained for reference compound GW9508 (4-[[(3-phenoxyphenyl)methyl]amino]benzene propanoic acid; British Journal of Pharmacology 2006 148, 619-628) that acts as a full agonist of the GPR120 receptor. The maximal activity of GW9508 is designated as 100% activity. Typically, the GW9508 activity reached a maximum at a concentration of approximately 6.7 μM. Activities of compounds that were tested according to this method are shown in Table 1 below and are expressed as % activity at 5 μM compound compared to the maximal activity of GW9508 at 6.7 μM.

[1] = read-out: EC50 between >1 μM and ≦10 μM

| SMILES | % Activity at 5 μM [%] | EC50 [1] [nM] | EC50 (read-out: EC50 ≦ 1 μM) [nM] | EC50 (read-out: EC50 > 10 μM) [nM] |
| --- | --- | --- | --- | --- |
| Cc1cc(COc2c(F)cc(CCC(=O)O)cc2F)c(-c2ccccc2)o1 [Example 12, 3-(3,5-difluoro-4-((5-methyl-2-phenylfuran-3-yl)methoxy)phenyl)propanoic acid] | 70 | 1000 to 10000 |  |  |
| Cc1cc(-c2onc(C)c2COc2c(F)cc(CCC(=O)O)cc2F)no1 [Example 19, 3-(4-((3′,5-dimethyl-3,5′-biisoxazol-4′-yl)methoxy)-3,5-difluorophenyl)propanoic acid] | 69 |  | ≤ 1000 |  |
| Cc1onc(-c2ccccc2)c1COc1c(F)cc(CCC(=O)O)cc1F [Example 14, 3-(3,5-difluoro-4-((5-methyl-3-phenylisoxazol-4-yl)methoxy)phenyl)propanoic acid] | 66 |  | ≤ 1000 |  |
| O=C(O)C1CC1c1cc(F)c(OCc2snnc2-c2ccccc2)c(F)c1 (stereo not drawn) [Example 63, 2-(3,5-difluoro-4-((4-phenyl-1,2,3-thiadiazol-5-yl)methoxy)phenyl)cyclopropane carboxylic acid] | 76 |  | ≤ 1000 |  |
| Cc1cc(COc2cc3c(cc2F)C(CC(=O)O)CC3)n(-c2ccc(Cl)cc2)n1 (stereo not drawn) [Example 106, 2-(5-((1-(4-Chlorophenyl)-3-methyl-1H-pyrazol-5-yl)methoxy)-6-fluoro-2,3-dihydro-1H-inden-1-yl)acetic acid] | 88 |  | ≤ 1000 |  |
| C[C@@H](Oc1cc(F)c(OCc2snnc2-c2ccc(Cl)cc2)c(F)c1)C(=O)O [Example 66, (R)-2-(4-((4-(4-chlorophenyl)-1,2,3-thiadiazol-5-yl)methoxy)-3,5-difluorophenoxy)propanoic acid] | 15 |  |  | > 10000 |
| CCc1ccc(-n2nc(C)cc2COc2ccc(CC(C)C(=O)O)cc2C)cc1 (stereo not drawn) [Example 95, 3-(4-((1-(4-ethylphenyl)-3-methyl-1H-pyrazol-5-yl)methoxy)-3-methylphenyl)-2-methylpropanoic acid] | 100 |  | ≤ 1000 |  |
| O=C(O)CCC(=O)c1ccc(OCc2snnc2-c2ccc(Cl)cc2)cc1 [Example 67, 4-(4-((4-(4-chlorophenyl)-1,2,3-thiadiazol-5-yl)methoxy)phenyl)-4-oxobutanoic acid] | 59 | 1000 to 10000 |  |  |
| Cc1onc(-c2ccccc2)c1COc1ccc2c(c1)CCC2CC(=O)O (stereo not drawn) [Example 58, 2-(5-((5-methyl-3-phenylisoxazol-4-yl)methoxy)-2,3-dihydro-1H-inden-1-yl)acetic acid] | 66 |  | ≤ 1000 |  |
| O=C(O)CCc1cc(F)c(OCc2cnnn2-c2ccccc2)c(F)c1 [Example 5, 3-(3,5-difluoro-4-((1-phenyl-1H-1,2,3-triazol-5-yl)methoxy)phenyl)propanoic acid] | 64 | 1000 to 10000 |  |  |
| Cc1cc(COc2ccc(C=C3CC(C(=O)O)C3)cc2)n(-c2ccc(Cl)cc2)n1 (stereo not drawn) [Example 111, 3-(4-((1-(4-Chlorophenyl)-3-methyl-1H-pyrazol-5-yl)methoxy)benzylidene)cyclobutanecarboxylic acid] | 80 |  | ≤ 1000 |  |
| O=C(O)CCc1cc(F)c(OCc2cncn2-c2ccccc2)c(F)c1 [Example 3, 3-(3,5-difluoro-4-((1-phenyl-1H-imidazol-5-yl)methoxy)phenyl)propanoic acid] | 70 | 1000 to 10000 |  |  |
| CCc1cc(OCc2cc(C)nn2-c2ccc(Cl)cc2)ccc1CCC(=O)O [Example 118, 3-(4-((1-(4-chlorophenyl)-3-methyl-1H-pyrazol-5-yl)methoxy)-2-ethylphenyl)propanoic acid] | 103 |  | ≤ 1000 |  |

More lines, now with the values ahead:

| % Activity at 5 μM [%] | EC50 [1] [nM] | EC50 (read-out: EC50 ≦ 1 μM) [nM] | EC50 (read-out: EC50 > 10 μM) [nM] | SMILES |
| --- | --- | --- | --- | --- |
| 83 | 1000 to 10000 |  |  | COc1cc(CC(C)C(=O)O)ccc1OCc1cc(C)nn1-c1ccc(Cl)cc1 (stereo not drawn) [Example 112, 3-(4-((1-(4-Chlorophenyl)-3-methyl-1H-pyrazol-5-yl)methoxy)-3-methoxyphenyl)-2-methylpropanoic acid] |
| 27 |  |  | > 10000 | Cc1cc(COc2c(F)cc(CC(C)C(=O)O)cc2F)n(-c2ccc(C3CCCCC3)cc2)n1 (stereo not drawn) [Example 104, 3-(4-((1-(4-Cyclohexylphenyl)-3-methyl-1H-pyrazol-5-yl)methoxy)-3,5-difluorophenyl)-2-methylpropanoic acid] |
| 114 |  | ≤ 1000 |  | Cc1cc(COc2ccc(CC(C)C(=O)O)cc2C)n(-c2ccc(Cl)cc2)n1 (stereo not drawn) [Example 109, 3-(4-((1-(4-Chlorophenyl)-3-methyl-1H-pyrazol-5-yl)methoxy)-3-methylphenyl)-2-methylpropanoic acid] |
| 108 |  | ≤ 1000 |  | Cc1cc(COc2c(F)cc(CC(C)C(=O)O)cc2F)n(-c2ccc(Cl)c(C)c2)n1 (stereo not drawn) [Example 94, 3-(4-((1-(4-chloro-3-methylphenyl)-3-methyl-1H-pyrazol-5-yl)methoxy)-3,5-difluorophenyl)-2-methylpropanoic acid] |
| 66 |  | ≤ 1000 |  | Cc1cc(COc2c(F)cc(CC3CC3C(=O)O)cc2F)n(-c2ccc(Cl)cc2)n1 (stereo not drawn) [Example 55, 2-(4-((1-(4-chlorophenyl)-3-methyl-1H-pyrazol-5-yl)methoxy)-3,5-difluorobenzyl)cyclopropanecarboxylic acid] |
| 71 |  | ≤ 1000 |  | COc1ccc(-n2nc(C)cc2COc2c(F)cc(CCC(=O)O)cc2F)cc1 [Example 49, 3-(3,5-difluoro-4-((1-(4-methoxyphenyl)-3-methyl-1H-pyrazol-5-yl)methoxy)phenyl)propanoic acid] |
| 108 |  | ≤ 1000 |  | CC(Cc1cc(F)c(OCc2ccnn2-c2ccc(Cl)cc2)c(F)c1)C(=O)O (stereo not drawn) [Example 93, 3-(4-((1-(4-chlorophenyl)-1H-pyrazol-5-yl)methoxy)-3,5-difluorophenyl)-2-methylpropanoic acid] |
| 97 |  | ≤ 1000 |  | CCc1ccc(-n2nc(C(F)(F)F)cc2COc2c(F)cc(CC(C)C(=O)O)cc2F)cc1 (stereo not drawn) [Example 96, 3-(4-((1-(4-ethylphenyl)-3-(trifluoromethyl)-1H-pyrazol-5-yl)methoxy)-3,5-difluorophenyl)-2-methylpropanoic acid] |
| 105 |  | ≤ 1000 |  | CC(Cc1cc(F)c(OCc2cc(C(F)(F)F)nn2-c2ccc(Cl)cc2)c(F)c1)C(=O)O (stereo not drawn) [Example 117, 3-(4-((1-(4-chlorophenyl)-3-(trifluoromethyl)-1H-pyrazol-5-yl)methoxy)-3,5-difluorophenyl)-2-methylpropanoic acid] |
| 92 |  | ≤ 1000 |  | Cc1cc(COc2ccc(CC(C)C(=O)O)cc2C(F)(F)F)n(-c2ccc(Cl)cc2)n1 (stereo not drawn) [Example 78, 3-(4-((1-(4-chlorophenyl)-3-methyl-1H-pyrazol-5-yl)methoxy)-3-(trifluoromethyl)phenyl)-2-methylpropanoic acid] |
| 111 |  | ≤ 1000 |  | CC(Cc1cc(F)c(OCc2c(C(F)(F)F)nn(C)c2Oc2ccccc2)c(F)c1)C(=O)O (stereo not drawn) [Example 114, 3-(3,5-Difluoro-4-((1-methyl-5-phenoxy-3-(trifluoromethyl)-1H-pyrazol-4-yl)methoxy)phenyl)-2-methylpropanoic acid] |
